According to patent publication US10123998B2, “Kinase modulation, and indications therefor” (Plexxikon Inc., priority 2012, dated 2018):
pIC50: −log10 of the molar value.

Each compound was assayed on Osteoclast precursor cells (assay: Osteoclast differentiation assay).
Assay type: cell-based
Description: Further, an osteoclast differentiation assay is used to assess the efficacy of Fms inhibitors for treating bone disease such as osteoarthritis. On day 0, Osteoclast Medium BulletKit (Lonza catalog # PT-8001, containing Media, FBS, L-Glutamine, PenStrep, RANKL, and M-CSF) media is thawed and the FBS, L-glutamine and PenStrep from the kit is added to 100 mL of Osteoclast Precursor Basal medium to provide the Osteoclast Precursor Growth Medium (OPGM). This is warmed to 37° C. Osteoclast precursor cells (Lonza catalog #2T-110) frozen in cryovial are warmed to 37° C. and transferred to a 50 mL conical tube. The cryovial is rinsed with OPGM and added dropwise to the conical tube of cells with swirling, then the volume is adjusted to 20-30 mL with addition of OPGM. The cells are centrifuged at 200×g for 15 minutes at room temperature and all but approximately 3 mL of supernatant is removed to a new conical tube. The cells are suspended in the remaining supernatant and the volume is adjusted to 10-15 mL with OPGM added dropwise with swirling. The cells are centrifuged at 200×g for 15 minutes at room temperature and all but approximately 1 mL of supernatant is removed. The cells are resuspended in the remaining supernatant, counted, and the volume adjusted with an appropriate amount of OPGM to provide approximately 1×10^5 cells/mL. A 0.1 mL aliquot of cells is added to each well of a 96-well plate. Compound to be tested is prepared in DMSO for plating at a high concentration of 2.5 mM, with 8 point 1:3 serial dilutions. A 1 μL aliquot of each compound dilution is added to a 96 well v-bottom polypropylene plate and 0.124 mL of OPGM is added to the compound. Then 50 μL of the compound in OPGM is added to the osteoclast precursor cells in 96-well plate (providing highest test concentration of 5 μM). RANKL (2 μg) from the BulletKit is reconstituted in 1 mL of OPGM, then vortexed and centrifuged briefly. A 792 μL aliquot of RANKL is added to 6 mL of OPGM and 50 μL is added to low control wells. Then 76.6 μL M-CSF ([…]) from the BulletKit is added to the remaining 5.8 mL of OPGM/RANKL solution (4×RANKL/M-CSF/OPGM). A 50 μL aliquot of this is added to the remaining wells, and the remainder is stored at 4° C. for later use. The plate is incubated at 37° C. for 6 days, then the remaining OPGM/RANKL/M-CSF solution is warmed to 37° C. The remaining approximately 198 μL is combined with 6 mL of OPGM. The media is aspirated from the osteoclast wells and 100 μL of RANKL/OPGM is added to the low controls. The remaining RANKL/OPGM is combined with the approximately 18.5 μL of remaining M-CSF. The remaining 4×RANKL/M-CSF/OPGM from day 0 is diluted to 1× and combined with the freshly prepared solution. A 0.1 mL aliquot of this is added to each osteoclast well and incubated for 37° C. for 1 day. The Acid Phosphatase kit (Cayman Chemical catalog #10008051) is warmed to room temperature. The assay buffer is diluted 5 mL with 45 mL of water. For each plate, two substrate tablets are dissolved in 4.5 mL of the assay buffer, mixing by vortex to break up the tablet. Stop solution is diluted 12 mL with 36 mL of water. In a tissue culture hood, 20 μL of each osteoclast well supernatant is transferred to a 96 well plate. A 30 μL aliquot of the substrate solution is added to each well and incubated at 37° C. for 20 minutes, then added […] stop solution to each well. The absorbance of each well is read at 405 nm on Safire plate reader. The absorbance reading is plotted vs. concentration to provide the IC50 for each compound.

Structure (SMILES)	pIC50
COc1ccc(CNc2ncc(Cc3c[nH]c4ncc(C)cc34)cc2C)cn1 [Compound P-1554, (6-Methoxy-pyridin-3-ylmethyl)-[3-methyl-5-(5-methyl-1H-pyrrolo[2,3-b]pyridin-3-ylmethyl)-pyridin-2-yl]-amine]	> 7.00
Fc1cncc(CNc2ccc(Cc3c[nH]c4ncc(Cl)cc34)c(F)n2)c1 [Compound P-2001, [5-(5-Chloro-1H-pyrrolo[2,3-b]pyridin-3-ylmethyl)-6-fluoro-pyridin-2-yl]-(5-fluoro-pyridin-3-ylmethyl)-amine]	> 7.00
Clc1cnc2[nH]cc(Cc3ccc(NCc4ccc(Cl)nc4)nc3)c2c1 [Compound P-2003, (6-Chloro-pyridin-3-ylmethyl)-[5-(5-chloro-1H-pyrrolo[2,3-b]pyridin-3-ylmethyl)-pyridin-2-yl]-amine]	> 7.00
Fc1ccc(CNc2ccc(Cc3c[nH]c4ncc(Cl)cc34)cn2)cn1 [Compound P-2004, [5-(5-Chloro-1H-pyrrolo[2,3-b]pyridin-3-ylmethyl)-pyridin-2-yl]-(6-fluoro-pyridin-3-ylmethyl)-amine]	> 7.00
Cc1cnc2[nH]cc(Cc3ccc(NCc4ccc(C(F)(F)F)nc4)nc3)c2c1 [Compound P-2019, [5-(5-Methyl-1H-pyrrolo[2,3-b]pyridin-3-ylmethyl)-pyridin-2-yl]-(6-trifluoromethyl-pyridin-3-ylmethyl)-amine]	> 7.00
COc1cnc2[nH]cc(Cc3ccc(NCc4cncc(F)c4)nc3F)c2c1 [Compound P-2028, [6-Fluoro-5-(5-methoxy-1H-pyrrolo[2,3-b]pyridin-3-ylmethyl)-pyridin-2-yl]-(5-fluoro-pyridin-3-ylmethyl)-amine]	> 7.00
COc1ccc(CNc2ccc(Cc3c[nH]c4ncc(C)cc34)c(F)n2)cn1 [Compound P-2029, [6-Fluoro-5-(5-methyl-1H-pyrrolo[2,3-b]pyridin-3-ylmethyl)-pyridin-2-yl]-(6-methoxy-pyridin-3-ylmethyl)-amine]	> 7.00
COc1cnc2[nH]cc(Cc3ccc(NCc4ccc(OC)nc4)nc3F)c2c1 [Compound P-2030, [6-Fluoro-5-(5-methoxy-1H-pyrrolo[2,3-b]pyridin-3-ylmethyl)-pyridin-2-yl]-(6-methoxy-pyridin-3-ylmethyl)-amine]	> 7.00
Cc1cnc2[nH]cc(Cc3ccc(NCc4ccc(C(F)(F)F)nc4)nc3F)c2c1 [Compound P-2031, [6-Fluoro-5-(5-methyl-1H-pyrrolo[2,3-b]pyridin-3-ylmethyl)-pyridin-2-yl]-(6-trifluoromethyl-pyridin-3-ylmethyl)-amine]	> 7.00
COc1cnc2[nH]cc(Cc3ccc(NCc4ccc(Cl)cc4)nc3F)c2c1 [Compound P-2032, (4-Chloro-benzyl)-[6-fluoro-5-(5-methoxy-1H-pyrrolo[2,3-b]pyridin-3-ylmethyl)-pyridin-2-yl]-amine]	> 7.00
COc1ccnc2[nH]cc(Cc3ccc(NCc4ccc(Cl)cc4)nc3F)c12 [Compound P-2037, (4-Chloro-benzyl)-[6-fluoro-5-(4-methoxy-1H-pyrrolo[2,3-b]pyridin-3-ylmethyl)-pyridin-2-yl]-amine]	> 7.00
COc1ccc(CNc2ncc(Cc3c[nH]c4ncc(Cl)cc34)cn2)cn1 [Compound P-2038, [5-(5-Chloro-1H-pyrrolo[2,3-b]pyridin-3-ylmethyl)-pyrimidin-2-yl]-(6-methoxy-pyridin-3-ylmethyl)-amine]	> 7.00
COc1ncccc1CNc1ccc(Cc2c[nH]c3ncccc23)c(F)n1 [Compound P-2045, [6-Fluoro-5-(1H-pyrrolo[2,3-b]pyridin-3-ylmethyl)-pyridin-2-yl]-(2-methoxy-pyridin-3-ylmethyl)-amine]	> 7.00
COc1ncc(CNc2ccc(Cc3c[nH]c4ncc(C)cc34)c(F)n2)cc1F [Compound P-2048, (5-Fluoro-6-methoxy-pyridin-3-ylmethyl)-[6-fluoro-5-(5-methyl-1H-pyrrolo[2,3-b]pyridin-3-ylmethyl)-pyridin-2-yl]-amine]	> 7.00
COc1ncc(F)cc1CNc1ccc(Cc2c[nH]c3ncc(C)cc23)c(F)n1 [Compound P-2049, (5-Fluoro-2-methoxy-pyridin-3-ylmethyl)-[6-fluoro-5-(5-methyl-1H-pyrrolo[2,3-b]pyridin-3-ylmethyl)-pyridin-2-yl]-amine]	> 7.00
COc1ncccc1CNc1ccc(Cc2c[nH]c3ncc(C)cc23)c(F)n1 [Compound P-2052, [6-Fluoro-5-(5-methyl-1H-pyrrolo[2,3-b]pyridin-3-ylmethyl)-pyridin-2-yl]-(2-methoxy-pyridin-3-ylmethyl)-amine]	> 7.00
COc1ccc(CNc2ncc(Cc3c[nH]c4ncc(C)cc34)cn2)cn1 [Compound P-2057, (6-Methoxy-pyridin-3-ylmethyl)-[5-(5-methyl-1H-pyrrolo[2,3-b]pyridin-3-ylmethyl)-pyrimidin-2-yl]-amine]	> 7.00

The remaining lines, values ahead:

pIC50	Structure (SMILES)
> 7.00	COc1ncc(F)cc1CNc1ncc(Cc2c[nH]c3ncc(C)cc23)cn1 [Compound P-2061, (5-Fluoro-2-methoxy-pyridin-3-ylmethyl)-[5-(5-methyl-1H-pyrrolo[2,3-b]pyridin-3-ylmethyl)-pyrimidin-2-yl]-amine]
> 7.00	FC(F)(F)c1ccncc1CNc1ccc(Cc2c[nH]c3ncc(Cl)cc23)cn1 [Compound P-2063, [5-(5-Chloro-1H-pyrrolo[2,3-b]pyridin-3-ylmethyl)-pyridin-2-yl]-(4-trifluoromethyl-pyridin-3-ylmethyl)-amine]
> 7.00	COc1ncc(F)cc1CNc1ncc(Cc2c[nH]c3ncc(Cl)cc23)cn1 [Compound P-2064, [5-(5-Chloro-1H-pyrrolo[2,3-b]pyridin-3-ylmethyl)-pyrimidin-2-yl]-(5-fluoro-2-methoxy-pyridin-3-ylmethyl)-amine]
> 7.00	Cc1cnc2[nH]cc(Cc3ccc(NCc4cnccc4C(F)(F)F)nc3)c2c1 [Compound P-2070, [5-(5-Methyl-1H-pyrrolo[2,3-b]pyridin-3-ylmethyl)-pyridin-2-yl]-(4-trifluoromethyl-pyridin-3-ylmethyl)-amine]
> 7.00	Cc1cnc2[nH]cc(Cc3cnc(NCc4ccc(C(F)(F)F)nc4)c(F)c3)c2c1 [Compound P-2146, [3-Fluoro-5-(5-methyl-1H-pyrrolo[2,3-b]pyridin-3-ylmethyl)-pyridin-2-yl]-(6-trifluoromethyl-pyridin-3-ylmethyl)-amine]
> 7.00	COc1cnc2[nH]cc(Cc3cnc(NCc4ccc(C(F)(F)F)nc4)c(F)c3)c2c1 [Compound P-2147, [3-Fluoro-5-(5-methoxy-1H-pyrrolo[2,3-b]pyridin-3-ylmethyl)-pyridin-2-yl]-(6-trifluoromethyl-pyridin-3-ylmethyl)-amine]
> 7.00	Cn1cc(F)cc(CNc2ncc(Cc3c[nH]c4ncc(Cl)cc34)cn2)c1=O [Compound P-2157, 3-{[5-(5-Chloro-1H-pyrrolo[2,3-b]pyridin-3-ylmethyl)-pyrimidin-2-ylamino]-methyl}-5-fluoro-1-methyl-1H-pyridin-2-one]
> 7.00	COc1ncc(CNc2ccc(Cc3c[nH]c4ncc(Cl)cc34)c(F)n2)cc1F [Compound P-2165, [5-(5-Chloro-1H-pyrrolo[2,3-b]pyridin-3-ylmethyl)-6-fluoro-pyridin-2-yl]-(5-fluoro-6-methoxy-pyridin-3-ylmethyl)-amine]
> 7.00	Fc1cncc(CNc2ncc(Cc3c[nH]c4ncc(Cl)cc34)cn2)c1 [Compound P-2176, [5-(5-Chloro-1H-pyrrolo[2,3-b]pyridin-3-ylmethyl)-pyrimidin-2-yl]-(5-fluoro-pyridin-3-ylmethyl)-amine]
